Laboratory results: the NIST ThermoML archive (doi:10.1016/j.jct.2011.05.018)
Numbers after ± are expanded uncertainties.

Test: xn = mol fraction of the nth substance listed
Settings: 101 kPa, Liquid; for viscosity: Capillary tube (Ostwald / Ubbelohde) method; for speed of sound: Pulse-echo method; for mass density: Pycnometric method

COc1ccc(C=O)cc1 [4-methoxybenzaldehyde] + Cc1cccc(O)c1
Settings	mass density [kg/m3]	speed of sound [m/s]	viscosity [mPa·s]
303.15 K, x1 = 0.0883	1031.6 ± 10	1487.6 ± 1.6	8.513 ± 0.059
303.15 K, x1 = 0.1789	1037.8 ± 10	1507.8 ± 1.6	8.028 ± 0.056
303.15 K, x1 = 0.2719	1044 ± 10	1528.6 ± 1.6	7.569 ± 0.053
303.15 K, x1 = 0.3674	1052.6 ± 10	1550.3 ± 1.6	7.051 ± 0.05
303.15 K, x1 = 0.4656	1060.7 ± 11	1572.5 ± 1.6	6.528 ± 0.047
303.15 K, x1 = 0.5665	1068 ± 11	1595.6 ± 1.6	5.969 ± 0.043
303.15 K, x1 = 0.6703	1076.4 ± 11	1619.1 ± 1.6	5.331 ± 0.039
303.15 K, x1 = 0.777	1088 ± 11	1643.4 ± 1.6	4.593 ± 0.034
303.15 K, x1 = 0.8869	1104.5 ± 11	1668.4 ± 1.6	3.93 ± 0.029
303.15 K, x1 = 1	1125.2 ± 11	1694.3 ± 1.6	3.251 ± 0.024
308.15 K, x1 = 0.0883	1026.7 ± 10	1471.4 ± 1.6	7.108 ± 0.05
308.15 K, x1 = 0.1789	1032.4 ± 10	1490.9 ± 1.6	6.747 ± 0.048
308.15 K, x1 = 0.2719	1038 ± 10	1511 ± 1.6	6.421 ± 0.046
308.15 K, x1 = 0.3674	1045.4 ± 10	1532.1 ± 1.6	6.046 ± 0.044
308.15 K, x1 = 0.4656	1052.3 ± 10	1553.4 ± 1.6	5.659 ± 0.041
308.15 K, x1 = 0.5665	1060 ± 11	1575.6 ± 1.6	5.237 ± 0.038
308.15 K, x1 = 0.6703	1066.1 ± 11	1598.2 ± 1.6	4.741 ± 0.035
308.15 K, x1 = 0.777	1077.2 ± 11	1621.6 ± 1.6	4.151 ± 0.031
308.15 K, x1 = 0.8869	1092.6 ± 11	1645.7 ± 1.6	3.648 ± 0.027
308.15 K, x1 = 1	1111.6 ± 11	1670.7 ± 1.6	3.131 ± 0.023
313.15 K, x1 = 0.0883	1022.8 ± 10	1455.7 ± 1.6	5.894 ± 0.043
313.15 K, x1 = 0.1789	1028.4 ± 10	1473.1 ± 1.6	5.629 ± 0.041
313.15 K, x1 = 0.2719	1034.8 ± 10	1490.7 ± 1.6	5.393 ± 0.04
313.15 K, x1 = 0.3674	1042.8 ± 10	1509.2 ± 1.6	5.13 ± 0.038
313.15 K, x1 = 0.4656	1049.1 ± 10	1528.1 ± 1.6	4.858 ± 0.036
313.15 K, x1 = 0.5665	1056.8 ± 11	1547.6 ± 1.6	4.555 ± 0.034
313.15 K, x1 = 0.6703	1064.4 ± 11	1567.4 ± 1.6	4.181 ± 0.031
313.15 K, x1 = 0.777	1075.1 ± 11	1588.1 ± 1.6	3.724 ± 0.028
313.15 K, x1 = 0.8869	1090.9 ± 11	1609.3 ± 1.6	3.34 ± 0.025
313.15 K, x1 = 1	1109.5 ± 11	1631.3 ± 1.6	2.961 ± 0.022
318.15 K, x1 = 0.0883	1019.2 ± 10	1437.7 ± 1.6	4.849 ± 0.036
318.15 K, x1 = 0.1789	1026.5 ± 10	1449.6 ± 1.6	4.655 ± 0.035
318.15 K, x1 = 0.2719	1033.4 ± 10	1461.5 ± 1.6	4.47 ± 0.033
318.15 K, x1 = 0.3674	1041.6 ± 10	1474.1 ± 1.6	4.272 ± 0.032
318.15 K, x1 = 0.4656	1048.2 ± 10	1487 ± 1.6	4.085 ± 0.03
318.15 K, x1 = 0.5665	1055.2 ± 11	1500.1 ± 1.6	3.868 ± 0.029
318.15 K, x1 = 0.6703	1062.5 ± 11	1513.5 ± 1.6	3.586 ± 0.027
318.15 K, x1 = 0.777	1073.3 ± 11	1527.5 ± 1.6	3.236 ± 0.024
318.15 K, x1 = 0.8869	1088.4 ± 11	1542 ± 1.6	2.949 ± 0.022
318.15 K, x1 = 1	1104.7 ± 11	1557 ± 1.6	2.682 ± 0.02
